Measured values reported in patent US20190062697A1, “Cell Differentiation Marker and its Uses” (Centre National De La Recherche Scientifique (CNRS), priority 2013, published 2019).

What was measured:
ES cells [1] = assay: FACS cell cycle analysis of asynchronously growing ES cells treated with roscovitine; type: cell-based, mouse; conditions: increasing concentration of roscovitine
Description: FIG. 5C is FACS analysis of asynchronously growing ES cells treated with increasing concentration of Roscovitine (in μM; Z-axis). Roscovitine is a potent and selective inhibitor of cyclin-dependent kinases, […]. X-axis represents DNA content (expressed in propidium iodide fluorescence) and Y-axis represents the number of cells.
Single-cell suspensions were prepared by trypsinisation and washed once in PBS. Cells were fixed in ice-cold 70% ethanol (−20° C.) and stored at −20° C. overnight. Following RNAse A treatment, total DNA was stained with propidium iodide (25 μg/ml). For BrdU uptake analysis, ES cells and NIH-3t3 cells were grown in the presence of 10 μM BrdU for respectively 10 and 30 minutes. The BrdU content was determined by reaction with a fluorescein isothiocyanate (FITC)-conjugated anti-BrdU antibody (BD Biosciences). Cells were analyzed with a FACScalibur flow cytometer using CellQuestPro software.

ES cells [2] = assay: Clonogenic assay of ES cells with alkaline phosphatase (AP) staining; type: cell-based, mouse; conditions: prolonged (7 days) RNAi knockdown, in the presence of LIF
Description: FIG. 12M is a histogram showing a clonogenic assay of ES cells upon prolonged control (1), Dub3 (2) or Cdc25a (3) targeting RNAi sequence. Cells were plated at clonal density in LIF-containing serum and stained for AP after 7 days. Columns show the percentage of alkaline phosphatase (AP) positive (dark grey) or negative (light grey) colonies. At least 150 colonies were scored.

Cdc25A mRNA = assay: qPCR quantification of Cdc25A mRNA in ES cells; type: cell-based, mouse
Description: FIG. 6I is a histogram showing qPCR quantification of Cdc25A normalised to multiple reference genes expressed as percentage of control. ES cells were transfected with control (Luc), β-TrCP (1), Cdh1 (2) or Dub3 (3) RNAi sequences and collected 48 hours after transfection. Bars represent the mean±SD of triplicate observations.
FIG. 7C is a histogram showing the qPCR quantification of Cdc25A mRNA normalised to multiple reference genes. ES cells were transfected with control (1), Dub3 (2) or Cdc25A (3) RNAi sequences.
(§1) FIG. 9A is a graph showing qPCR quantification of Cdc25A (curves with black squares) and Dub3 (curves with triangles) mRNA in ES cells treated with increasing concentration of the selective Esrrb and Esrrg agonist DY131 (indicated doses in μM) for 16 hours. Bars represent the fold induction±SD of triplicate observations.
(§2) Briefly, ES cells were maintained in Glasgow MEM BHK-21 (GMEM) supplemented with 10% fetal bovine serum, non-essential amino acids, L-glutamine, sodium pyruvate, β-mercapthethanol. NIH-3t3 cells were maintained in Dulbecco's modified eagle's medium (DMEM) supplemented with 10% fetal bovine serum, 2 mM glutamine and antibiotics. […]
(§3) Total RNA was isolated with TRIzol reagent (Invitrogen). […] Quantitative PCRs were performed using Lightcycler SYBR Green I Master mix (Roche) on Lightcycler apparatus (Roche). […]

Cdc25A = assay: Western blot analysis of Cdc25A protein levels in ES cells; type: cell-based, mouse
Description: Cells were UV-irradiated and incubated with cycloheximide (Cx) in absence or presence of Chk1 inhibitor SB218078, collected at the indicated times (min) and analyzed by western blotting. Cdc25A expression (#1) and β-actin (#2; as control) are shown.
FIG. 6J is a western blot analysis of Cdc25A protein expression in Luciferase (a.), β-TrCP (b.) and Cdh1 (c.) RNAi-transfected cells. Expression of Cdc25A (#1) and β-actin (#2) is shown.
Expression of CDC25A (#1), Cdc25C (#2) and β-actin (#3, as control) is represented.
FIG. 9B is a western blot analysis of Cdc25A protein levels in ES cells treated with increasing concentrations (in μM) of the DY131 agonist for 16 hours. Cdc25A (#1) and β-actin (#2, as control) protein expression is represented.
Cells were rinsed once in PBS and then incubated with ice cold lysis buffer (50 mM Tris-HCl pH 7.4, 100 mM NaCl, 50 mM NaF, 5 mM EDTA, 40 mM β-glycero-phosphate, 1% Triton X-100 and protease inhibitors) for 30 min on ice before scraping. Whole cell extracts were clarified by centrifugation at 12000 rcf for 10 min at 4° C. Protein concentration of the clarified lysates was estimated using BCA method (Pierce). Equal amount of protein was used for western blot analysis. All antibodies were incubated overnight at 4° C. in phosphate-buffered saline (PBS) containing 1% BSA and 0.1% Tween (Sigma). Antibodies used from Cell Signaling: Chk1S345P (2341), p53S15P (9284), γH2AX (2577), CDK2Y15P (9111), Myc-Tag (2276); Active caspase 3 (9961); Abcam: DNA polα (ab31777), H3 (ab1791), CDK2 (ab6538), PSTAIR (ab10345), GFP (ab290), MCM2 (ab4461); Suds3 (ab3740) Santa Cruz: Cdc45 (sc-20685), Cdc25A (sc-7389), Chk1 (sc-8408), Cyclin B1 (sc-245), Cdc25C (sc-327), Cdc25B (sc-65504), p21 (sc-6246), RhoA (sc-418); anti-goat IgG-HRP (sc-2020) Sigma: (PC10), β-actin (A1978), Cyclin A (C7410), Anti-Flag M2 (F1804), Oct4 (Chemicon, AB3209), and Millipore, Nestin (Ab353), H3S10P (Millipore 09-797). Wee1 (kindly provided by T. Lorca, CRBM Montpellier).

[3] = system: deubiquitylating enzymes (DUBs); conditions: cited from earlier work
Dub3 mRNA = assay: qPCR quantification of Dub3 mRNA in ES cells; type: cell-based, mouse; conditions: increasing dose of DY131, 16 hours
Description: as §1
FIG. 9C is a histogram showing qPCR quantification of Esrrb (1) and Dub3 (2) mRNA normalised to multiple reference genes expressed as percentage of control in presence of DY131. ES cells were transfected with control (Crtl) RNAi (white bars) or Esrrb specific RNAi sequence (black bars). Data are expressed as mean±SD (error bars) of multiple observations.
as §2, with “antibiotics. The viruses-containing conditioned medium was incubated on exponentially growing NIH-3t3 cells for 24 hours in the presence of polybrene ([…]).” for “antibiotics.”
as §3

CDK2^Y15P = assay: Western blot of inhibitory CDK2 Tyr15 phosphorylation upon DNA damage in G1; type: cell-based, mouse; conditions: 24 hours knockdown, UV light in G1
Source text: FIG. 4E is a western blot showing the downregulation of Cdc25A expression by RNAi resulting in increased inhibitory CDK2Tyr15 phosphorylation upon DNA damage in G1. Control (a.) and Cdc25A (b.) RNAi-transfected cells were released from nocodazole and exposed (+) to UV-light in G1. Samples were collected at the indicated times and analyzed by western blotting with the indicated antibodies: Cdc25A (#1), Cdk2^Y15P (#2), Cyclin B1 (#3), Chk1^S345P (#4), Chk1 (#5) and β-actin (#6; as control).
Western blot signals of FIG. 4E were quantified by densitometry scanning and expressed as relative optical density (ROD) compared to Chk1 signal as loading control. Black bars represent cells treated with Cdc25A RNAi (a.) and white bars represent cells treated with control RNAi (b.).
Cells were rinsed once in PBS and then incubated with ice cold lysis buffer (50 mM Tris-HCl pH 7.4, 100 mM NaCl, 50 mM NaF, 5 mM EDTA, 40 mM β-glycero-phosphate, 1% Triton X-100 and protease inhibitors) for 30 min on ice before scraping. Whole cell extracts were clarified by centrifugation at 12000 rcf for 10 min at 4° C. Protein concentration of the clarified lysates was estimated using BCA method (Pierce). Equal amount of protein was used for western blot analysis. All antibodies were incubated overnight at 4° C. in phosphate-buffered saline (PBS) containing 1% BSA and 0.1% Tween (Sigma). […]

ES cells [4] = assay: BrdU pulse-labelling / FACS of synchronized ES cells UV-irradiated in G1 (S-phase entry); type: cell-based, mouse; conditions: 24 hours knockdown, UV light in G1, collected 2 hours after UV
Description: FIG. 4F is a histogram showing Cdc25A downregulation in G1 delay upon DNA damage. Control (a.) and Cdc25A (b.) RNAi-transfected cells were released from nocodazole and exposed to UV light in G1 (t=2) and collected 2 hours (t=4) after UV-(+) or mock-irradiation (−). Prior to collection cells were pulse-labelled with BrdU. Fraction (expressed as %) of diploid BrdU negative cells is plotted (data are represented as mean±SD). Statistical differences is indicated with a single asterisk (*) for P<0.05. Y-axis represents the percentage of cells in G1.
ES cells were arrested in prometaphase by nocodazole (Sigma) for 4-8 hours. After mitotic-shake off cells were washed 3 times in ice-cold PBS and dissolved in full ES growth medium. Cells were incubated in a humidified atmosphere of 5% CO2 at 37° C. for 45 minutes and placed at 30° C. for 1 hour to reduce S phase entry. Cells were mock- or UV-irradiated (6 J/m2) and incubated at 37° C. prior collection. To synchronise NIH-3t3 cells in G0 cells were grown to confluence and incubated for 2-3 days. Next, cells were washed, resuspended and split at 30% confluency. […]
Single-cell suspensions were prepared by trypsinisation and washed once in PBS. […] The BrdU content was determined by reaction with a fluorescein isothiocyanate (FITC)-conjugated anti-BrdU antibody (BD Biosciences). Cells were analyzed with a FACScalibur flow cytometer using CellQuestPro software.

[5] = RNAi-mediated knockdown in ES cells
[6] = increasing dose of DY131, 16 hours, ES cells

## CC[C@H](CO)Nc1nc(NCc2ccccc2)c2ncn(C(C)C)c2n1 [roscovitine]
ES cells [1]
  G1 cells: dose-dependent increase of G1 cells
  fraction of S phase cells: reduced the fraction of S phase cells

## 5′-GGCUGUAAGAUGUGUGCUA-3′ (listed as RNA, chemistry not given here) [Dub3 RNAi]
ES cells [2]
  alkaline phosphatase (AP)-negative colonies: increase of alkaline phosphatase (AP)-negative colonies
Cdc25A mRNA; [5]
  Cdc25A mRNA level: did not affect Cdc25A mRNA level
Cdc25A; [5]
  reduction of Cdc25A protein abundance: 3 fold

## O=C1NC(=O)c2c1c1c3ccccc3n3c1c1c2c2ccccc2n1C1CCC3O1 [SB218078]
Cdc25A; UV-irradiated ES cells with cycloheximide, absence or presence of Chk1 inhibitor
  Cdc25A destruction upon DNA damage: rapid Cdc25A destruction upon DNA damage is Chk1-dependent

## N#CSc1cc(SC#N)c(N)nc1N [PR-619]
[3]
  accumulation of polyubiquitylated proteins in cells: induces the accumulation of polyubiquitylated proteins in cells
  proteasome activity: without directly affecting proteasome activity

## CCN(CC)c1ccc(/C=N/NC(=O)c2ccc(O)cc2)cc1 [DY131]
Cdc25A mRNA; [6]
  Cdc25A transcript level: without affecting Cdc25A transcript level
Cdc25A; [6]
  Cdc25A protein abundance: increased Cdc25A protein abundance
Dub3 mRNA
  Dub3 gene expression: boosted Dub3 gene expression

## 5′-GAAAUUUCCCUGACGAGAA-3′ (listed as RNA, chemistry not given here) [Cdc25A RNAi]
CDK2^Y15P
  CDK2^Y15P levels: increased CDK2^Y15P levels
ES cells [2]
  alkaline phosphatase (AP)-negative colonies: A very similar result was also observed
ES cells [4]
  BrdU-negative cells with 2N DNA content: significant, UV-dependent, increase of BrdU-negative cells with 2N DNA content
